Test results from US20250163052A1, “cGAS INHIBITORS AND USES THEREOF” (Cornell University, priority 2022, published 2025).
Read-outs that look alike come from different tables or passages of the source.

Experiments:
m-cGAS = m-cGAS (Mus musculus, UniProt Q8C6L5); test: Cell-free mouse cGAS enzyme inhibition assay (ATP depletion, Kinase-Glo Max); assay type: biochemical; details: 1 h; for inhibition at 10 µM: read-out: m-cGAS, conc. 10 μM
hERG = hERG (Homo sapiens, UniProt Q12809); test: Safety panel screening, hERG automated patch clamp; assay type: cell-based; details: read-out: Mean percentage inhibition (%) at 10 μM, hERG
h-cGAS = h-cGAS (Homo sapiens, UniProt Q8N884); test: Cell-free human cGAS enzyme inhibition assay (ATP depletion, Kinase-Glo Max); assay type: biochemical; details: 3 h; for inhibition at 10 µM: read-out: h-cGAS, conc. 10 μM
SET = SET (Homo sapiens, UniProt P31645); test: Safety panel screening, serotonin transporter neurotransmitter uptake; assay type: cell-based; details: read-out: Mean percentage inhibition (%) at 10 μM, SET
[1] = Protein binding in mouse brain homogenates; assay type: in vitro ADME; details: for recovery at 6 h / fraction unbound at 6 hr: brain homogenate; for fraction unbound at 6 hr: read-out: % BoundBrain (converted)
NFkB-SEAP = test: THP1-Dual cells transfected with DNA, nfkb expression (Quantiblue); assay type: cell-based; details: Homo sapiens; for inhibition at 10 µM: THP-1, 10 μM; for inhibition at 30 µM: THP-1, 30 μM
Procedure, shortened: (§1)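 Readouts after overnight incubation: Quantiluc luminescence for Ifnb, Quantiblue for nfkb (both in supernatant) and CellTiter-Glo for viability. Before the DNA stimulus (2 ug/ml, lipofectamine transfection), THP1-Dual cells received compound at several dilutions for 4 h.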

THP1 cells = test: THP1-Dual cells, cell viability (CellTiter-Glo); assay type: cell-based
Procedure, shortened: as §1

[2] = Metabolic stability in mouse liver microsomes
[3] = Pharmacokinetic study, plasma and brain PK parameters after I.P. dosing; assay type: in vivo, mouse; details: 25 mg/Kg I.P.; for Kp / AUC(0-inf) / AUC(0-t) / MRT inf / half-life / Tmax / Cmax: mouse, ip; for Kp: brain/plasma, 25 mg/kg
Method: To test pharmacokinetics, TDI-6570 ([…] solution in water containing 0.2% Tween 80) was administered to 8-weeks old CD-1 male mice (n=3 for each time point) intraperitoneally (IP) and both plasma (EDTA-K2) and brain tissues were collected at various time points (0.5, 2, 4, 8 and 24 hours post drug administration). Transcardial perfusion were performed with saline prior to brain collection. Bioanalysis of brain tissue and plasma extracts were performed by LC-MS/MS.

D1 = D1 (Homo sapiens, UniProt P21728); test: Safety panel screening, D1 cAMP assay; assay type: cell-based; details: for inhibition at 10 µM: antagonist mode, read-out: Antagonist Mode Mean percentage inhibition (%) at 10 μM, D1
IFNB = test: THP1-Dual cells transfected with DNA, Ifnb expression (Quantiluc); assay type: cell-based; details: Homo sapiens; for inhibition at 10 µM: THP-1, 10 μM; for inhibition at 30 µM: THP-1, 30 μM
Procedure, shortened: as §1

PDE4D2 = PDE4D2 (Homo sapiens, UniProt Q08499); test: Safety panel screening, PDE4D2 IMAP; assay type: biochemical; details: read-out: Mean percentage inhibition (%) at 10 μM, PDE4D2
5HT2B = 5HT2B (Homo sapiens, UniProt P41595); test: Safety panel screening, 5HT2B Ca2+ mobilization; assay type: cell-based; details: for inhibition at 10 µM: antagonist mode, read-out: Antagonist Mode Mean percentage inhibition (%) at 10 μM, 5HT2B
[4] = read-out: AUClast Ratio (brain/plasma)
[5] = read-out: Cmax Ratio (brain/plasma)
[6] = brain, read-out: AUCInf (Brain)
[7] = brain, read-out: AUClast (Brain)
[8] = brain, read-out: MRTInf_obs (Brain)
[9] = brain, read-out: T1/2 (Brain) (converted)
[10] = plasma, read-out: AUCInf (plasma)
[11] = plasma, read-out: AUClast (plasma)
[12] = plasma, read-out: MRTInf_obs (plasma)
[13] = plasma, read-out: T1/2 (plasma) (converted)
[14] = plasma, read-out: Tmax (plasma)

Sequence of m-cGAS (Q8C6L5 whole entry): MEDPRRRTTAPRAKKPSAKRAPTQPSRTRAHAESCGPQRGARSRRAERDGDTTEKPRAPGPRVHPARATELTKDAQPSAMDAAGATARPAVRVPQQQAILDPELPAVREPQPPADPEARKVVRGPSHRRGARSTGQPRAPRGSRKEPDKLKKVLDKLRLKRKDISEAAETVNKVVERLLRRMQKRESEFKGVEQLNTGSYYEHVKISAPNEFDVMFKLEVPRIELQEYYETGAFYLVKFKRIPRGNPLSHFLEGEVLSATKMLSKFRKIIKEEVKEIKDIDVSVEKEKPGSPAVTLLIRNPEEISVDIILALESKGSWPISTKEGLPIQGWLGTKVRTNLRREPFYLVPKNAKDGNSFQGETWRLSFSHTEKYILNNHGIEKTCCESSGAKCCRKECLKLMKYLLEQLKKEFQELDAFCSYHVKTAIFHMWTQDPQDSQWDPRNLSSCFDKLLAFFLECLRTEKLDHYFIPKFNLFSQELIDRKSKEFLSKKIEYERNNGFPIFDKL
Sequence of 5HT2B (P41595 whole entry, species assumed): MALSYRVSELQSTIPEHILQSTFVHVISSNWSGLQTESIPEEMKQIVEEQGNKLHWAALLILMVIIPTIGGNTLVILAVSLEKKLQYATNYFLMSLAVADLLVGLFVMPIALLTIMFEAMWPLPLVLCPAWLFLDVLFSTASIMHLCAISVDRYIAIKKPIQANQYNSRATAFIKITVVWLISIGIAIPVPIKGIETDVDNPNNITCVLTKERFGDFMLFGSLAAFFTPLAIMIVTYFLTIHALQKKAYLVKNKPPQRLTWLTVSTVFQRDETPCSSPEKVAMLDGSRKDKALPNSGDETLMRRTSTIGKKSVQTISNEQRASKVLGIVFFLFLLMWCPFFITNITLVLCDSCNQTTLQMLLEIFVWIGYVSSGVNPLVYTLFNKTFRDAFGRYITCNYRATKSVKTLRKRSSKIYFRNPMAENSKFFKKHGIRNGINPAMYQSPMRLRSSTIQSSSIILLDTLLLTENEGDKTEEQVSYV
Sequence of D1 (P21728 whole entry): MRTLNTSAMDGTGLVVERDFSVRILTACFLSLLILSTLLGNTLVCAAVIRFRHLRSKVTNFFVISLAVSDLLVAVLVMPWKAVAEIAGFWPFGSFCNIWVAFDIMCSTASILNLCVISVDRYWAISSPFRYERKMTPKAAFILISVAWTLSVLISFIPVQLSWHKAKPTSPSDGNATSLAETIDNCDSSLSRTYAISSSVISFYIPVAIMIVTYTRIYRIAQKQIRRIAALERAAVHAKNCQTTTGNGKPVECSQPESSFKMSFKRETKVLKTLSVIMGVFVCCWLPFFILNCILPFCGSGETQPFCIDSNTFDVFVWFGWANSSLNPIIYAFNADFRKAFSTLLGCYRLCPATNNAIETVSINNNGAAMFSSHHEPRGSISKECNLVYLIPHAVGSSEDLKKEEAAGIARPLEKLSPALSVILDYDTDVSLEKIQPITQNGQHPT
Sequence of h-cGAS (Q8N884 whole entry): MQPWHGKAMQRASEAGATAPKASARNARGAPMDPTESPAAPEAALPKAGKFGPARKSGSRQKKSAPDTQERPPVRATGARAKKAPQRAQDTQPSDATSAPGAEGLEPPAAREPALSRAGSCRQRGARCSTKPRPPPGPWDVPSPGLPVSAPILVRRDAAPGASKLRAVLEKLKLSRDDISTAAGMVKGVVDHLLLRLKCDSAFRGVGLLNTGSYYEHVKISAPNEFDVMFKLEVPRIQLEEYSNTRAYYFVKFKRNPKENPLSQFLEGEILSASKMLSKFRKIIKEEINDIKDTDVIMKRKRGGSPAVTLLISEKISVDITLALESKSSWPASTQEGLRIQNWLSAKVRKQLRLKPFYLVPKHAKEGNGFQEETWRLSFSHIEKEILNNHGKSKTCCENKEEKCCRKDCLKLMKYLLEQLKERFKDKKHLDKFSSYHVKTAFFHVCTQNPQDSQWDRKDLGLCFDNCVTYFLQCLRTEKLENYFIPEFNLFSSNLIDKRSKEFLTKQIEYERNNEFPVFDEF
Sequence of SET (P31645 whole entry): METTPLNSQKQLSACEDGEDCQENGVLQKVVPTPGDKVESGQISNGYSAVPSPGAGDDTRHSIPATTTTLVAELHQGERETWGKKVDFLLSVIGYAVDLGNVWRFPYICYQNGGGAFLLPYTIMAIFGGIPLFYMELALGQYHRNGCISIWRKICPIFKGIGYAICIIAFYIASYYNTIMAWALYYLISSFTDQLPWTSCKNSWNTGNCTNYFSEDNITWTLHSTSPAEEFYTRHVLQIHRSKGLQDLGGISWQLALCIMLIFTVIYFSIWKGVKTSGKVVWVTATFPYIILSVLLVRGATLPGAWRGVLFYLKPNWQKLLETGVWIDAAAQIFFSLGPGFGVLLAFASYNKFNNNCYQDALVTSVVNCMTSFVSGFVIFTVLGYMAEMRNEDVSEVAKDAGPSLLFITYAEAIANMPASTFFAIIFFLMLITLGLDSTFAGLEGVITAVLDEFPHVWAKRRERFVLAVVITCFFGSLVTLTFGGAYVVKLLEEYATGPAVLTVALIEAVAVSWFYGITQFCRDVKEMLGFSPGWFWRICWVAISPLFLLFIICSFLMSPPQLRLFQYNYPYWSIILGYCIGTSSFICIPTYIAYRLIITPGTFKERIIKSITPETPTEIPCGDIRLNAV
Sequence of PDE4D2 (Q08499 303-809): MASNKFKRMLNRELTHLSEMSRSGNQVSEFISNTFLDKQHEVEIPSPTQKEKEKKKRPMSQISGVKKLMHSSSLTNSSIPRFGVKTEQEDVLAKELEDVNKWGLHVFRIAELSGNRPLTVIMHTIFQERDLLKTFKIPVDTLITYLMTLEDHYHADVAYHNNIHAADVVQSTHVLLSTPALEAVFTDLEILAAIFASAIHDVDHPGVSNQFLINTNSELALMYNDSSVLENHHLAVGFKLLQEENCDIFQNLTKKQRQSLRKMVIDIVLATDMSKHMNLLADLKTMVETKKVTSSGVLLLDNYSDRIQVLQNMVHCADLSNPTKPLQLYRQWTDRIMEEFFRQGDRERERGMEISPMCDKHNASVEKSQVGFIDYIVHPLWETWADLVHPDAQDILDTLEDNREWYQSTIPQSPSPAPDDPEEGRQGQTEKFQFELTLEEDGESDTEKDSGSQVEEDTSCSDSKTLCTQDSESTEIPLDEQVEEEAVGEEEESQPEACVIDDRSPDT
Sequence of hERG (Q12809 whole entry): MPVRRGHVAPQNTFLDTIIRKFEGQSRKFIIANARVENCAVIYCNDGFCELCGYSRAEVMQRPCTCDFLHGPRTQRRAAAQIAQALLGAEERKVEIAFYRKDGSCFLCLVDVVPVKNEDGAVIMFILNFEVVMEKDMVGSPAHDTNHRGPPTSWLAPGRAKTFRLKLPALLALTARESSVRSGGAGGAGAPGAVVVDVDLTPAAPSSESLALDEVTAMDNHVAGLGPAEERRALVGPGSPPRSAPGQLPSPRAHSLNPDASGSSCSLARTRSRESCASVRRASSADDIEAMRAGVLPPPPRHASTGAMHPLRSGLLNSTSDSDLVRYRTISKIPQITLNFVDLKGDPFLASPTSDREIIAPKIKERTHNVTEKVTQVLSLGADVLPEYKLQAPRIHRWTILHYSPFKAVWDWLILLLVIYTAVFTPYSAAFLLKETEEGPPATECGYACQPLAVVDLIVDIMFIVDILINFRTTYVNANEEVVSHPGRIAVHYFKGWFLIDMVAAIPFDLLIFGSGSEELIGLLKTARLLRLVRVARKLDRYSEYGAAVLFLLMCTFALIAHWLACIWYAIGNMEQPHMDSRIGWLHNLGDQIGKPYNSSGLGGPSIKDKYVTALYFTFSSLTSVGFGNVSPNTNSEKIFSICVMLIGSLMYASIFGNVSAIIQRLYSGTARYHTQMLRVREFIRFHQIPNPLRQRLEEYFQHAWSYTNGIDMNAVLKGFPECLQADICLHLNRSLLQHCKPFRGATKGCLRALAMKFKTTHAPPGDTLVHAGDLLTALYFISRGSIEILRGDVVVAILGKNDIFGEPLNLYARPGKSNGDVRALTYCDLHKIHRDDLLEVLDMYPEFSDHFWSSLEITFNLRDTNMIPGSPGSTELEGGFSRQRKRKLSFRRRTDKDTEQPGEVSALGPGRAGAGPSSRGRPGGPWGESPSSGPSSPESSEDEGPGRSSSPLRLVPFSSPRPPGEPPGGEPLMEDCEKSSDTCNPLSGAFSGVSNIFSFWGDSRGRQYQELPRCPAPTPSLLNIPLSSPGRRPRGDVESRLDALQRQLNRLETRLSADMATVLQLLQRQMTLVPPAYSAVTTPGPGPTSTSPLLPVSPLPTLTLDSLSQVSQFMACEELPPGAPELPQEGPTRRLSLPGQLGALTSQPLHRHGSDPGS

With `Cn1cc(-c2cc(Cl)c(Cl)c3sc4c(c23)CN(C(=O)CO)CC4)cn1` [Compound 48] as the molecule, how does the inhibition at 10 µM (m-cGAS) read?
Its inhibition at 10 µM is 0 to 24%.

And the inhibition at 10 µM (hERG)?
The inhibition at 10 µM was 63%.

What about the inhibition at 1 µM (h-cGAS; read-out: h-cGAS, conc. 1 μM) of the same molecule?
Its inhibition at 1 µM is 0 to 24%.

What about the inhibition at 10 µM (h-cGAS) of the same molecule?
Its inhibition at 10 µM is 50 to 74%.

And the inhibition at 10 µM (SET)?
Its inhibition at 10 µM is 46.2%.

And the LogK [1]?
The LogK was >4.17.

And the “% Remaining at 6 hr” value [1]?
Its value is 92.46%.

What about the recovery at 6 h [1] of the same molecule?
The recovery at 6 h was < 91.1%.

And the fraction unbound at 6 hr [1]?
Its fraction unbound at 6 hr is < 0.0001.

What about the inhibition at 10 µM (NFkB-SEAP) of the same molecule?
The inhibition at 10 µM was < 24%.

What about the inhibition at 30 µM (NFkB-SEAP) of the same molecule?
The inhibition at 30 µM was 50 to 74%.

And the “Cell viability 10 μM” value (THP1 cells)?
Its value is “+++ (+, ++, and +++ mean the compound respectively shows 25-49%; 50-74%; or 75-100% viability to cells)”.

And the “Cell viability 30 μM” value (THP1 cells)?
The value was “+++ (+, ++, and +++ mean the compound respectively shows 25-49%; 50-74%; or 75-100% viability to cells)”.

What about the “Remaining (NCF = 60 min)” value ([2]; mouse liver microsomes, 60 min, no co-factor (no NADPH)) of the same molecule?
The value was 94.7%.

And the “Remaining (T = 60 min)” value ([2]; mouse liver microsomes, 60 min with NADPH)?
The value was 88.1%.

And the CLint scaled ([2]; mouse, liver microsomes)?
The CLint scaled was 87.2 mL/min/kg.

And the half-life ([2]; mouse, liver microsomes)?
The half-life was 2 min.

What about the microsomal CLint ([2]; mouse, liver microsomes) of the same molecule?
Its microsomal CLint is 679 µL/min/mg.

What about the “AUC_%Extrap_obs (Brain)” value ([3]; brain) of the same molecule?
The value was 0.813%.

And the “AUClast/D (Brain)” value ([3]; brain)?
Its value is 5081 mg·h/mL.

What about the “Cmax (Brain)” value ([3]; brain) of the same molecule?
Its value is 19853 ng/mL.

And the Kp [3, 4]?
The Kp was 3.79.

And the Kp [3, 5]?
Its Kp is 3.14.

And the AUC(0-inf) [3, 6]?
Its AUC(0-inf) is 128000 ng·h/mL.

And the AUC(0-t) [3, 7]?
Its AUC(0-t) is 127000 ng·h/mL.

What about the MRT inf [3, 8] of the same molecule?
The MRT inf was 4.69 h.

And the half-life [3, 9]?
Its half-life is 3.45 h.

And the Tmax ([3]; brain, read-out: Tmax (Brain))?
Its Tmax is 2 h.

And the Cmax ([3]; plasma)?
Its Cmax is 6320 ng/mL.

And the AUC(0-inf) [3, 10]?
The AUC(0-inf) was 33500 ng·h/mL.

And the AUC(0-t) [3, 11]?
The AUC(0-t) was 33500 ng·h/mL.

And the MRT inf [3, 12]?
The MRT inf was 4.95 h.

What about the half-life [3, 13] of the same molecule?
Its half-life is 4.53 h.

What about the Tmax [3, 14] of the same molecule?
The Tmax was 1 h.

And the “AUC_%Extrap_obs (plasma)” value ([3]; plasma)?
Its value is 0.0394%.

And the “AUClast/D (plasma)” value ([3]; plasma)?
The value was 1339 mg·h/mL.

What about the “Agonist Mode Mean percentage activation (%) at 10 μM, D1” value (D1) of the same molecule?
Its value is 4.36%.

What about the inhibition at 10 µM (D1) of the same molecule?
The inhibition at 10 µM was 6.62%.

And the inhibition at 10 µM (IFNB)?
The inhibition at 10 µM was 25 to 49%.

And the inhibition at 30 µM (IFNB)?
Its inhibition at 30 µM is 50 to 74%.

And the inhibition at 10 µM (PDE4D2)?
Its inhibition at 10 µM is 56.4%.

What about the “Agonist Mode Mean percentage activation (%) at 10 μM, 5HT2B” value (5HT2B) of the same molecule?
The value was −0.48%.

What about the inhibition at 10 µM (5HT2B) of the same molecule?
Its inhibition at 10 µM is 34.5%.

Which results are given for `O=C(CO)N1CCc2c(sc3c(Cl)c(Cl)cc(-c4cn[nH]c4)c23)C1` [Compound 63]?
inhibition at 1 µM (m-cGAS; read-out: m-cGAS, conc. 1 μM): 25 to 49%; inhibition at 10 µM (m-cGAS): 50 to 74%; inhibition at 10 µM (hERG): 49.7%; inhibition at 10 µM (h-cGAS): 25 to 49%; inhibition at 10 µM (SET): 15.2%; LogK [1]: >4.72; % Remaining at 6 hr [1]: 108.27%; recovery at 6 h [1]: < 88.4%; fraction unbound at 6 hr [1]: < 2e-05; inhibition at 10 µM (NFkB-SEAP): 25 to 49%; inhibition at 30 µM (NFkB-SEAP): 75 to 100%; Cell viability 10 μM (THP1 cells): +++ (+, ++, and +++ mean the compound respectively shows 25-49%; 50-74%; or 75-100% viability to cells); Cell viability 30 μM (THP1 cells): +++ (+, ++, and +++ mean the compound respectively shows 25-49%; 50-74%; or 75-100% viability to cells); AUC_%Extrap_obs (Brain) ([3]; brain): 1.62%; AUClast/D (Brain) ([3]; brain): 1354 mg·h/mL; Cmax (Brain) ([3]; brain): 3721 ng/mL; Kp [3, 4]: 0.989; Kp [3, 5]: 0.734; AUC(0-inf) [3, 6]: 34400 ng·h/mL; AUC(0-t) [3, 7]: 33900 ng·h/mL; MRT inf [3, 8]: 6.51 h; half-life [3, 9]: 3.86 h; Tmax ([3]; brain, read-out: Tmax (Brain)): 4 h; Cmax ([3]; plasma): 5070 ng/mL; AUC(0-inf) [3, 10]: 34300 ng·h/mL; AUC(0-t) [3, 11]: 34200 ng·h/mL; MRT inf [3, 12]: 4.76 h; half-life [3, 13]: 4.79 h; Tmax [3, 14]: 2 h; AUC_%Extrap_obs (plasma) ([3]; plasma): 0.0536%; AUClast/D (plasma) ([3]; plasma): 1370 mg·h/mL; Agonist Mode Mean percentage activation (%) at 10 μM, D1 (D1): 6.19%; inhibition at 10 µM (D1): 3.08%; inhibition at 10 µM (IFNB): 50 to 74%; inhibition at 30 µM (IFNB): 75 to 100%; inhibition at 10 µM (PDE4D2): 73.2%; Agonist Mode Mean percentage activation (%) at 10 μM, 5HT2B (5HT2B): 22.36%; inhibition at 10 µM (5HT2B): 49.4%
